# Reference: ChEMBL document CHEMBL4177690, “(E)-3-(3,4,5-Trimethoxyphenyl)-1-(pyridin-4-yl)prop-2-en-1-one, a heterocyclic chalcone is a potent and selective CYP1A1 inhibitor and cancer chemopreventive agent” (Bioorg Med Chem Lett, 2017)
# Biological target: T1, Cytochrome P450 1A1 (Homo sapiens, UniProt P04798)
# T1 sequence (P04798 whole entry): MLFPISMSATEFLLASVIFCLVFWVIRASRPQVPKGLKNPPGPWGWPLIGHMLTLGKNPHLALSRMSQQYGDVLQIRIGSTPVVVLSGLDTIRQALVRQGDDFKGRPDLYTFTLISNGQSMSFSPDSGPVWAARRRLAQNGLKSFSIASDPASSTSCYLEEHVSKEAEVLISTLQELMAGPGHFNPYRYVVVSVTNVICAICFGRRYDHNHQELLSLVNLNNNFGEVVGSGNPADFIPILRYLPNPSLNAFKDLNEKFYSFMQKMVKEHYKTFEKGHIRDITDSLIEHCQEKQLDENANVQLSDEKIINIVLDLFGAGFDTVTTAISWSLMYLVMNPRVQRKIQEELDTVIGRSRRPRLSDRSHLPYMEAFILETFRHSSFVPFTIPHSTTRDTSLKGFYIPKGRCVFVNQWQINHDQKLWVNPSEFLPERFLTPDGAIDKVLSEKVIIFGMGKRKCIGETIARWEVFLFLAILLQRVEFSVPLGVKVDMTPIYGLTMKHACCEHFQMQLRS
# Assay: Inhibition of human CYP1A1 expressed in yeast microsomal membranes using 7-ethoxyresorufin as substrate measured after 10 mins by fluorescence assay
# Type: cell membranes
row,SMILES,IC50
1,COc1cccc(/C=C/C(=O)c2ccncc2)c1,0.59 µM
2,CCOc1cc(/C=C/C(=O)c2ccncc2)cc(OC)c1OC,0.063 µM
3,COc1ccc(/C=C/C(=O)c2ccncc2)cc1OC,0.38 µM
4,COc1ccccc1/C=C/C(=O)c1ccncc1,0.57 µM
5,O=C(/C=C/c1ccc2c(c1)OCO2)c1ccncc1,1.12 µM
6,COc1ccc(/C=C/C(=O)c2ccncc2)cc1,6.31 µM

# Biological target: T2, Cytochrome P450 1B1 (Homo sapiens, UniProt Q16678)
# T2 sequence (Q16678 whole entry): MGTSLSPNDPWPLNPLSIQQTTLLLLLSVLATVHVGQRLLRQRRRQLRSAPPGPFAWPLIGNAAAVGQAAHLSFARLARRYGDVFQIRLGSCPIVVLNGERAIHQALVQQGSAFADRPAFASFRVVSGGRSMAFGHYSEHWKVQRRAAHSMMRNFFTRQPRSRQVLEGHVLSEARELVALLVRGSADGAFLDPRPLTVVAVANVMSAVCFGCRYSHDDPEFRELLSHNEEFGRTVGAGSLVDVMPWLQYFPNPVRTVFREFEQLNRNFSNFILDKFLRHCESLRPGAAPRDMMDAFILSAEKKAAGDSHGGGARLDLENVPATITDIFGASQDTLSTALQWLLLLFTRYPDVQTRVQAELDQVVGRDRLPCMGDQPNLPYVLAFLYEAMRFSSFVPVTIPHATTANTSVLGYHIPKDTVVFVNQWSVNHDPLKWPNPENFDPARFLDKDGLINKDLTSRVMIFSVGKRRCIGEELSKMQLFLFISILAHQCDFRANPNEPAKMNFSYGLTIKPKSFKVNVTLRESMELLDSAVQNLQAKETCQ
# Assay: Inhibition of human CYP1B1 expressed in yeast microsomal membranes using 7-ethoxyresorufin as substrate measured after 10 mins by fluorescence assay
# Type: cell membranes
row,SMILES,IC50
1,COc1cccc(/C=C/C(=O)c2ccncc2)c1,0.054 µM
2,CCOc1cc(/C=C/C(=O)c2ccncc2)cc(OC)c1OC,3.81 µM
3,COc1ccc(/C=C/C(=O)c2ccncc2)cc1OC,0.17 µM
4,COc1ccccc1/C=C/C(=O)c1ccncc1,0.048 µM
5,O=C(/C=C/c1ccc2c(c1)OCO2)c1ccncc1,2.11 µM
6,COc1ccc(/C=C/C(=O)c2ccncc2)cc1,7 µM

# Biological target: T3, Cytochrome P450 1A2 (Homo sapiens, UniProt P05177)
# T3 sequence (P05177 whole entry): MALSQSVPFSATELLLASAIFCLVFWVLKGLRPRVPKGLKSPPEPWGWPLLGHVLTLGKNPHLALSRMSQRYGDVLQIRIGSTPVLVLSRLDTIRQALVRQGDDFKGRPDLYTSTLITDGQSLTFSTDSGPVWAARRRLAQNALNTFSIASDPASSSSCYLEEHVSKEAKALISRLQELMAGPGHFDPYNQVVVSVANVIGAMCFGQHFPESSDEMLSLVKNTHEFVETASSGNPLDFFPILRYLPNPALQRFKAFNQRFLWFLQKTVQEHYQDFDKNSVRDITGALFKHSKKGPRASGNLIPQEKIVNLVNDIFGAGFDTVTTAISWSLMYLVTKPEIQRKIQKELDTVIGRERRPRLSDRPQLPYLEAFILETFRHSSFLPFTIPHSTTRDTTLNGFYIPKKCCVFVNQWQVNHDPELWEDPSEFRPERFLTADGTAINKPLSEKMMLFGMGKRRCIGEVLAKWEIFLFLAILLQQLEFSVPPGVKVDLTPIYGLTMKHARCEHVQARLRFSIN
# Assay: Inhibition of human CYP1A2 expressed in yeast microsomal membranes using 3-cyano-7-ethoxycoumarin as substrate measured after 10 mins by fluorescence assay
# Type: ADME, cell membranes, Microsomal Membrane
row,SMILES,IC50
1,COc1cccc(/C=C/C(=O)c2ccncc2)c1,0.02 µM
2,CCOc1cc(/C=C/C(=O)c2ccncc2)cc(OC)c1OC,1.32 µM
3,COc1ccc(/C=C/C(=O)c2ccncc2)cc1OC,0.12 µM
4,COc1ccccc1/C=C/C(=O)c1ccncc1,0.032 µM
5,O=C(/C=C/c1ccc2c(c1)OCO2)c1ccncc1,1.5 µM
6,COc1ccc(/C=C/C(=O)c2ccncc2)cc1,12 µM

# Biological target: T4, Cytochrome P450 2D6 (Homo sapiens, UniProt P10635)
# T4 sequence (P10635 whole entry): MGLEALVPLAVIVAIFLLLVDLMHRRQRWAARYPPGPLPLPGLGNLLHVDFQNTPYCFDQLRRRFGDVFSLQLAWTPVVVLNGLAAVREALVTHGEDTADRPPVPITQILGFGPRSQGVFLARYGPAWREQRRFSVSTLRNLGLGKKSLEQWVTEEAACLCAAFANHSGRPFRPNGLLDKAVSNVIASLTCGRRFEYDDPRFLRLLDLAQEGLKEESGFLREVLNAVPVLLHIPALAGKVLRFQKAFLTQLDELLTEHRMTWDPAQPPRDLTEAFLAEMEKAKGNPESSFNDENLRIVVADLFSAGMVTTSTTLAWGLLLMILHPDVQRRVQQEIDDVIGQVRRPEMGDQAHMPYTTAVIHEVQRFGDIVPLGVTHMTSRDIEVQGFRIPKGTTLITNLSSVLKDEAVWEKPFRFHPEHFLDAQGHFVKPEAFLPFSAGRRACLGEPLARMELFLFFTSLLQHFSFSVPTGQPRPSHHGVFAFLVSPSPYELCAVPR
# Assay: Inhibition of human CYP2D6 expressed in yeast microsomal membranes using 7-ethoxy-methyloxy-3-cyanocoumarin as substrate measured after 10 mins by fluorescence assay
# Type: ADME, cell membranes, Microsomal Membrane
row,SMILES,IC50
1,COc1cccc(/C=C/C(=O)c2ccncc2)c1,12 µM
2,CCOc1cc(/C=C/C(=O)c2ccncc2)cc(OC)c1OC,17 µM
3,COc1ccc(/C=C/C(=O)c2ccncc2)cc1OC,8 µM
4,COc1ccccc1/C=C/C(=O)c1ccncc1,11 µM
5,O=C(/C=C/c1ccc2c(c1)OCO2)c1ccncc1,12 µM
6,COc1ccc(/C=C/C(=O)c2ccncc2)cc1,15 µM

# Biological target: T5, Cytochrome P450 2C9 (Homo sapiens, UniProt P11712)
# T5 sequence (P11712 whole entry): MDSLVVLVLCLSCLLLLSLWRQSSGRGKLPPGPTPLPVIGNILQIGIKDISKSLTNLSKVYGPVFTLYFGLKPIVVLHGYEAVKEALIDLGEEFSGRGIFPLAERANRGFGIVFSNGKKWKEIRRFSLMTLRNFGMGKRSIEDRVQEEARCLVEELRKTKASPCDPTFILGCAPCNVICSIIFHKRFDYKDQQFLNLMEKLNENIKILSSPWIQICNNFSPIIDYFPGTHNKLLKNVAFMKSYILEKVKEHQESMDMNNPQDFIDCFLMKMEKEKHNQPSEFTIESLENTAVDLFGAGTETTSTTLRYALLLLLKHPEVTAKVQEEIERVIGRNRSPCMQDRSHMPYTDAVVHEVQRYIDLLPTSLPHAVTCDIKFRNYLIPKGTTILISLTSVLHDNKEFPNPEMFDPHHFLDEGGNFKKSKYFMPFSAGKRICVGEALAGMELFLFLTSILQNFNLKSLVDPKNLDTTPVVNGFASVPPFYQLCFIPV
# Assay: Inhibition of human CYP2C9 expressed in yeast microsomal membranes using 3-cyano-7-ethoxycoumarin as substrate measured after 10 mins by fluorescence assay
# Type: ADME, cell membranes, Microsomal Membrane
row,SMILES,IC50
1,COc1cccc(/C=C/C(=O)c2ccncc2)c1,> 20 µM
2,CCOc1cc(/C=C/C(=O)c2ccncc2)cc(OC)c1OC,> 20 µM
3,COc1ccc(/C=C/C(=O)c2ccncc2)cc1OC,> 20 µM
4,COc1ccccc1/C=C/C(=O)c1ccncc1,> 20 µM
5,O=C(/C=C/c1ccc2c(c1)OCO2)c1ccncc1,> 20 µM
6,COc1ccc(/C=C/C(=O)c2ccncc2)cc1,> 20 µM

# Biological target: T6, Cytochrome P450 2C19 (Homo sapiens, UniProt P33261)
# T6 sequence (P33261 whole entry): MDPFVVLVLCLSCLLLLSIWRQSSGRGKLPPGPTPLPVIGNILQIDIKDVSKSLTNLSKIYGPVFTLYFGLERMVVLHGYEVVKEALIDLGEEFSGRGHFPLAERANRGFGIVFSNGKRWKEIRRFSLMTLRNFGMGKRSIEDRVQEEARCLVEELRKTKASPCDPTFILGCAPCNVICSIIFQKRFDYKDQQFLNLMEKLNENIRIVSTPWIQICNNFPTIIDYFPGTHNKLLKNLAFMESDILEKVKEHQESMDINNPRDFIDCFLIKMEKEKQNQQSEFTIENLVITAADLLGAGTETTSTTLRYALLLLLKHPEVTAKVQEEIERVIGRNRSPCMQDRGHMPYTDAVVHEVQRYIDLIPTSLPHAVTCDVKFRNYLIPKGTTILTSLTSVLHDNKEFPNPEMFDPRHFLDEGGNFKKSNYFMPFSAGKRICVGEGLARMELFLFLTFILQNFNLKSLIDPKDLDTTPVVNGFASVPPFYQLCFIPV
# Assay: Inhibition of human CYP2C19 expressed in yeast microsomal membranes using 3-cyano-7-ethoxycoumarin as substrate measured after 10 mins by fluorescence assay
# Type: ADME, cell membranes, Microsomal Membrane
row,SMILES,IC50
1,COc1cccc(/C=C/C(=O)c2ccncc2)c1,> 20 µM
2,CCOc1cc(/C=C/C(=O)c2ccncc2)cc(OC)c1OC,> 20 µM
3,COc1ccc(/C=C/C(=O)c2ccncc2)cc1OC,> 20 µM
4,COc1ccccc1/C=C/C(=O)c1ccncc1,> 20 µM
5,O=C(/C=C/c1ccc2c(c1)OCO2)c1ccncc1,> 20 µM
6,COc1ccc(/C=C/C(=O)c2ccncc2)cc1,> 20 µM

# Biological target: T7, Cytochrome P450 3A4 (Homo sapiens, UniProt P08684)
# T7 sequence (P08684 whole entry): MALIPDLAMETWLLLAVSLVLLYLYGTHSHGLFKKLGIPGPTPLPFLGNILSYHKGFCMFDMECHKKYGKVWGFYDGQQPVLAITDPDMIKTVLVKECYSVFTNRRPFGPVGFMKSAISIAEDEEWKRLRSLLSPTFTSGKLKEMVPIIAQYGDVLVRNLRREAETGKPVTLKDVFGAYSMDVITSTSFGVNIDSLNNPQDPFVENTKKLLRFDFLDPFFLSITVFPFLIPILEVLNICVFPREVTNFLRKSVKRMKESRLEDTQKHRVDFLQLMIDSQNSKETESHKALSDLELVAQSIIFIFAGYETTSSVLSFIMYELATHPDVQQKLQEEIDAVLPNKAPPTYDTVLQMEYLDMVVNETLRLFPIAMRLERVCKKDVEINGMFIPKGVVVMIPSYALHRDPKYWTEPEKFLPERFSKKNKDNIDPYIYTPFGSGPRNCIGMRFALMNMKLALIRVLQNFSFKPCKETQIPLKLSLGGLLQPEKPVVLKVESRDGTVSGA
# Assay: Inhibition of human CYP3A4 expressed in yeast microsomal membranes using dibenzylfluorescein as substrate measured after 10 mins by fluorescence assay
# Type: ADME, cell membranes, Microsomal Membrane
row,SMILES,IC50
1,COc1cccc(/C=C/C(=O)c2ccncc2)c1,> 20 µM
2,CCOc1cc(/C=C/C(=O)c2ccncc2)cc(OC)c1OC,> 20 µM
3,COc1ccc(/C=C/C(=O)c2ccncc2)cc1OC,> 20 µM
4,COc1ccccc1/C=C/C(=O)c1ccncc1,> 20 µM
5,O=C(/C=C/c1ccc2c(c1)OCO2)c1ccncc1,> 20 µM
6,COc1ccc(/C=C/C(=O)c2ccncc2)cc1,> 20 µM

# Biological target: T1, Cytochrome P450 1A1
# Assay: Inhibition of recombinant human CYP1A1 expressed in HEK293 cells using 7-ethoxyresorufin as substrate pretreated for 30 mins followed by substrate addition measured for 60 mins by fluorescence assay
# Type: cell-based
row,SMILES,IC50
1,COc1cccc(/C=C/C(=O)c2ccncc2)c1,0.62 µM
2,CCOc1cc(/C=C/C(=O)c2ccncc2)cc(OC)c1OC,0.063 µM
3,COc1ccc(/C=C/C(=O)c2ccncc2)cc1OC,0.42 µM
4,COc1ccccc1/C=C/C(=O)c1ccncc1,0.61 µM
5,O=C(/C=C/c1ccc2c(c1)OCO2)c1ccncc1,1.12 µM
6,COc1ccc(/C=C/C(=O)c2ccncc2)cc1,6.61 µM

# Biological target: T2, Cytochrome P450 1B1
# Assay: Inhibition of recombinant human CYP1B1 expressed in HEK293 cells using 7-ethoxyresorufin as substrate pretreated for 30 mins followed by substrate addition measured for 60 mins by fluorescence assay
# Type: cell-based
row,SMILES,IC50
1,COc1cccc(/C=C/C(=O)c2ccncc2)c1,0.06 µM
2,CCOc1cc(/C=C/C(=O)c2ccncc2)cc(OC)c1OC,4.76 µM
3,COc1ccc(/C=C/C(=O)c2ccncc2)cc1OC,0.23 µM
4,COc1ccccc1/C=C/C(=O)c1ccncc1,0.06 µM
5,O=C(/C=C/c1ccc2c(c1)OCO2)c1ccncc1,3.52 µM
6,COc1ccc(/C=C/C(=O)c2ccncc2)cc1,8.52 µM

# Biological target: T3, Cytochrome P450 1A2
# Assay: Inhibition of recombinant human CYP1A2 expressed in HEK293 cells using 3-cyano-7-ethoxycoumarin as substrate pretreated for 30 mins followed by substrate addition measured for 60 mins by fluorescence assay
# Type: ADME
row,SMILES,IC50
1,COc1cccc(/C=C/C(=O)c2ccncc2)c1,0.02 µM
2,CCOc1cc(/C=C/C(=O)c2ccncc2)cc(OC)c1OC,1.53 µM
3,COc1ccc(/C=C/C(=O)c2ccncc2)cc1OC,0.12 µM
4,COc1ccccc1/C=C/C(=O)c1ccncc1,0.032 µM
5,O=C(/C=C/c1ccc2c(c1)OCO2)c1ccncc1,1.5 µM
6,COc1ccc(/C=C/C(=O)c2ccncc2)cc1,12 µM

# Biological target: T4, Cytochrome P450 2D6
# Assay: Inhibition of recombinant human CYP2D6 expressed in HEK293 cells using 7-ethoxy-methyloxy-3-cyanocoumarin as substrate pretreated for 30 mins followed by substrate addition measured for 60 mins by fluorescence assay
# Type: ADME, cell-based
row,SMILES,IC50
1,COc1cccc(/C=C/C(=O)c2ccncc2)c1,> 10 µM
2,CCOc1cc(/C=C/C(=O)c2ccncc2)cc(OC)c1OC,> 10 µM
3,COc1ccc(/C=C/C(=O)c2ccncc2)cc1OC,> 10 µM
4,COc1ccccc1/C=C/C(=O)c1ccncc1,> 10 µM
5,O=C(/C=C/c1ccc2c(c1)OCO2)c1ccncc1,> 10 µM
6,COc1ccc(/C=C/C(=O)c2ccncc2)cc1,> 10 µM

# Biological target: T5, Cytochrome P450 2C9
# Assay: Inhibition of recombinant human CYP2C9 expressed in HEK293 cells using 3-cyano-7-ethoxycoumarin as substrate pretreated for 30 mins followed by substrate addition measured for 60 mins by fluorescence assay
# Type: ADME
row,SMILES,IC50
1,COc1cccc(/C=C/C(=O)c2ccncc2)c1,> 10 µM
2,CCOc1cc(/C=C/C(=O)c2ccncc2)cc(OC)c1OC,> 10 µM
3,COc1ccc(/C=C/C(=O)c2ccncc2)cc1OC,> 10 µM
4,COc1ccccc1/C=C/C(=O)c1ccncc1,> 10 µM
5,O=C(/C=C/c1ccc2c(c1)OCO2)c1ccncc1,> 10 µM
6,COc1ccc(/C=C/C(=O)c2ccncc2)cc1,> 10 µM

# Biological target: T6, Cytochrome P450 2C19
# Assay: Inhibition of recombinant human CYP2C19 expressed in HEK293 cells using 3-cyano-7-ethoxycoumarin as substrate pretreated for 30 mins followed by substrate addition measured for 60 mins by fluorescence assay
# Type: ADME
row,SMILES,IC50
1,COc1cccc(/C=C/C(=O)c2ccncc2)c1,> 10 µM
2,CCOc1cc(/C=C/C(=O)c2ccncc2)cc(OC)c1OC,> 10 µM
3,COc1ccc(/C=C/C(=O)c2ccncc2)cc1OC,> 10 µM
4,COc1ccccc1/C=C/C(=O)c1ccncc1,> 10 µM
5,O=C(/C=C/c1ccc2c(c1)OCO2)c1ccncc1,> 10 µM
6,COc1ccc(/C=C/C(=O)c2ccncc2)cc1,> 10 µM

# Biological target: T7, Cytochrome P450 3A4
# Assay: Inhibition of recombinant human CYP3A4 expressed in HEK293 cells using dibenzylfluorescein as substrate pretreated for 30 mins followed by substrate addition measured for 60 mins by fluorescence assay
# Type: ADME
row,SMILES,IC50
1,COc1cccc(/C=C/C(=O)c2ccncc2)c1,> 10 µM
2,CCOc1cc(/C=C/C(=O)c2ccncc2)cc(OC)c1OC,> 10 µM
3,COc1ccc(/C=C/C(=O)c2ccncc2)cc1OC,> 10 µM
4,COc1ccccc1/C=C/C(=O)c1ccncc1,> 10 µM
5,O=C(/C=C/c1ccc2c(c1)OCO2)c1ccncc1,> 10 µM
6,COc1ccc(/C=C/C(=O)c2ccncc2)cc1,> 10 µM

# Organism: Homo sapiens
# Assay: Selectivity ratio of IC50 for recombinant human CYP1B1 expressed in HEK293 cells to IC50 for recombinant human CYP1A1 expressed in HEK293 cells
# Type: cell-based
row,SMILES,Ratio IC50
1,CCOc1cc(/C=C/C(=O)c2ccncc2)cc(OC)c1OC,< 10

# Organism: Homo sapiens
# Assay: Selectivity ratio of IC50 for recombinant human CYP1A2 expressed in HEK293 cells to IC50 for recombinant human CYP1A1 expressed in HEK293 cells
# Type: cell-based
row,SMILES,Ratio IC50
1,CCOc1cc(/C=C/C(=O)c2ccncc2)cc(OC)c1OC,< 10
